Reference: PMC10584170, “Machine learning-based phenotypic imaging to characterise the targetable biology of Plasmodium falciparum male gametocytes for the development of transmission-blocking antimalarials” (PLOS Pathogens, 2023)
Read-outs that look alike come from different tables or passages of the source.

Columns and labels:
HepG2 cells = assay: HepG2 cytotoxicity counter-screen; details: cytotoxic activity against HepG2 cells
[1] = system: P. falciparum male gametocytes; assay: P. falciparum Dual Gamete Formation Assay (PfDGFA), male readout (exflagellation); assay type: cell-based, Plasmodium falciparum NF54; details: for Selectivity Ratio M: HepG2 Tox50 versus male IC50; for IC50: PfDGFA, 24 h incubation with gametocytes before induction, exflagellation readout, read-out: Male IC50; for HitlevelM: number of replicates with >50% inhibition in the male readout
Procedure, shortened: (§1)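 Read-outs are automated image counts of exflagellation centres (brightfield, 10 frames over 1 s) and Pfs25-positive female gametes (Cy3 fluorescence).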

[2] = system: P. falciparum female gametocytes; assay: P. falciparum Dual Gamete Formation Assay (PfDGFA), female readout (Pfs25-positive female gametes); assay type: cell-based, Plasmodium falciparum NF54; details: for Selectivity ratio F: HepG2 Tox50 versus female IC50; for IC50: PfDGFA, 24 h incubation with gametocytes before induction, female gamete readout, read-out: Female IC50; for HitlevelF: number of replicates with >50% inhibition in the female readout
Procedure, shortened: as §1

[3] = 2µM, 24h preincubation with gametocytes, average of replicates
[4] = 2µM, 24h preincubation with gametocytes, replicate R1
[5] = 2µM, 24h preincubation with gametocytes, replicate R3
[6] = 2µM, 24h preincubation with gametocytes, replicate R4
[7] = Plasmodium falciparum, PfDGFA at 2µM, 24h preincubation with gametocytes, average of replicates, read-out: Average inhibition male (%)
[8] = Plasmodium falciparum, PfDGFA at 2µM, 24h preincubation with gametocytes, replicate R1, read-out: % inhibition male (individual replicates) R1
[9] = Plasmodium falciparum, PfDGFA at 2µM, 24h preincubation with gametocytes, replicate R2, read-out: % inhibition male (individual replicates) R2
[10] = Plasmodium falciparum, PfDGFA at 2µM, 24h preincubation with gametocytes, replicate R3, read-out: % inhibition male (individual replicates) R3
[11] = Plasmodium falciparum, PfDGFA at 2µM, 24h preincubation with gametocytes, replicate R4, read-out: % inhibition male (individual replicates) R4
[12] = Plasmodium falciparum, PfDGFA at 2µM, 24h preincubation with gametocytes, average of replicates, read-out: Average inhibition female (%)
[13] = Plasmodium falciparum, PfDGFA at 2µM, 24h preincubation with gametocytes, replicate R1, read-out: % inhibition female (individual replicates) R1
[14] = Plasmodium falciparum, PfDGFA at 2µM, 24h preincubation with gametocytes, replicate R2, read-out: % inhibition female (individual replicates) R2
[15] = Plasmodium falciparum, PfDGFA at 2µM, 24h preincubation with gametocytes, replicate R3, read-out: % inhibition female (individual replicates) R3
[16] = Plasmodium falciparum, PfDGFA at 2µM, 24h preincubation with gametocytes, replicate R4, read-out: % inhibition female (individual replicates) R4
[17] = PfDGFA at 2µM, 24h preincubation with gametocytes, average of replicates
[18] = PfDGFA at 2µM, 24h preincubation with gametocytes, replicate R1
[19] = PfDGFA at 2µM, 24h preincubation with gametocytes, replicate R3
[20] = PfDGFA at 2µM, 24h preincubation with gametocytes, replicate R4

SMILES	Tox50 (HepG2 cells)	Average inhibition male (%) [1, 3]	% inhibition male (individual replicates) R1 [1, 4]	% inhibition male (individual replicates) R3 [1, 5]	Selectivity Ratio M [1]	IC50 [1]	Selectivity ratio F [2]	inhibition at 2 µM [1, 7]	inhibition at 2 µM [1, 8]	inhibition at 2 µM [1, 9]	inhibition at 2 µM [1, 11]	IC50 ([1]; Plasmodium falciparum)	HitlevelM ([1]; 2µM)	inhibition at 2 µM [2, 12]	inhibition at 2 µM [2, 13]	inhibition at 2 µM [2, 14]	inhibition at 2 µM [2, 15]	inhibition at 2 µM [2, 16]	IC50 ([2]; Plasmodium falciparum)	HitlevelF ([2]; 2µM)	also measured
CNCCNCc1ccc(-c2ccc(-c3nc4cc(C(F)(F)F)ccc4[nH]3)s2)cc1.O=C(O)C(F)(F)F [TCMDC-132838]	13.1 µM	96.4%	96.0%	93.3%	9.9	1320 nM	1.31	–	–	–	–	–	–	–	–	–	–	–	–	–	% inhibition male (individual replicates) R4 [1, 6]: 98.9%; Average inhibition female (%) [2, 3]: 23.9%; % inhibition female (individual replicates) R1 [2, 4]: 24.8%; % inhibition female (individual replicates) R3 [2, 5]: 17.6%; % inhibition female (individual replicates) R4 [2, 6]: 33.8%
FC(F)(F)c1ccc2[nH]c(-c3ccc(-c4cccc(CNCCN5CCNCC5)c4)cc3)nc2c1.O=C(O)C(F)(F)F [TCMDC-132864]	20.55 µM	–	–	–	12.52	–	3.99	82.4%	79.2%	89.7%	94.9%	1640 nM	4	20.5%	25.8%	24.6%	-15.8%	47.4%	5150 nM	0	inhibition at 2 µM [1, 10]: 65.9%
FC(F)(F)c1ccc2[nH]c(-c3ccc(-c4ccc(CNCCN5CCNCC5)cc4)cc3)nc2c1.O=C(O)C(F)(F)F [TCMDC-132865]	13.76 µM	–	–	–	9.44	–	2.26	69.5%	60.9%	79.2%	98.9%	1460 nM	3	29.2%	27.7%	31%	31%	27.1%	6080 nM	0	inhibition at 2 µM [1, 10]: 39.1%
Fc1ccc2[nH]c(-c3ccc(-c4ccc(CNCCN5CCNCC5)cc4)cc3)nc2c1.O=C(O)C(F)(F)F [TCMDC-132866]	28.84 µM	–	–	–	12.07	–	2.88	63.5%	59%	70.4%	92.2%	2390 nM	3	11.4%	18%	1.6%	12.7%	13.5%	> 10000 nM	0	inhibition at 2 µM [1, 10]: 32.6%
Cc1cccc2nc(-c3ccc(-c4cccc(CNCCN5CCNCC5)c4)cc3)[nH]c12.O=C(O)C(F)(F)F [TCMDC-132867]	24.28 µM	–	–	–	12.97	–	2.66	–	–	–	–	1870 nM	–	–	–	–	–	–	9110 nM	–	HitlevelM ([1]; 2µM, 24h preincubation): 3; inhibition at 2 µM ([1]; Plasmodium falciparum, 2µM, 24h preincubation with gametocytes prior to induction of gametogenesis, average of replicates, read-out: Average inhibition male (%)): 46.3%; inhibition at 2 µM ([1]; Plasmodium falciparum, 2µM, 24h preincubation with gametocytes prior to induction of gametogenesis, replicate R1, read-out: % inhibition male (individual replicates) R1): 51.3%; inhibition at 2 µM ([1]; Plasmodium falciparum, 2µM, 24h preincubation with gametocytes prior to induction of gametogenesis, replicate R2, read-out: % inhibition male (individual replicates) R2): 52.2%; inhibition at 2 µM ([1]; Plasmodium falciparum, 2µM, 24h preincubation with gametocytes prior to induction of gametogenesis, replicate R3, read-out: % inhibition male (individual replicates) R3): 9.9%; inhibition at 2 µM ([1]; Plasmodium falciparum, 2µM, 24h preincubation with gametocytes prior to induction of gametogenesis, replicate R4, read-out: % inhibition male (individual replicates) R4): 71.6%; HitlevelF ([2]; 2µM, 24h preincubation): 1; inhibition at 2 µM ([2]; Plasmodium falciparum, 2µM, 24h preincubation with gametocytes prior to induction of gametogenesis, average of replicates, read-out: Average inhibition female (%)): 20.3%; inhibition at 2 µM ([2]; Plasmodium falciparum, 2µM, 24h preincubation with gametocytes prior to induction of gametogenesis, replicate R1, read-out: % inhibition female (individual replicates) R1): 12%; inhibition at 2 µM ([2]; Plasmodium falciparum, 2µM, 24h preincubation with gametocytes prior to induction of gametogenesis, replicate R2, read-out: % inhibition female (individual replicates) R2): 8.9%; inhibition at 2 µM ([2]; Plasmodium falciparum, 2µM, 24h preincubation with gametocytes prior to induction of gametogenesis, replicate R3, read-out: % inhibition female (individual replicates) R3): 0.36%; inhibition at 2 µM ([2]; Plasmodium falciparum, 2µM, 24h preincubation with gametocytes prior to induction of gametogenesis, replicate R4, read-out: % inhibition female (individual replicates) R4): 60%
Fc1ccc2[nH]c(-c3ccc(-c4ccc(CNCCN5CCNCC5)cc4)s3)nc2c1.O=C(O)C(F)(F)F [TCMDC-132869]	24.05 µM	–	–	–	12.22	–	3.35	66.3%	55.2%	84.7%	92.9%	1970 nM	3	6.1%	10.8%	10.6%	-3.4%	6.4%	7180 nM	0	inhibition at 2 µM [1, 10]: 32.6%
FC(F)(F)c1ccc2[nH]c(-c3cccc(-c4cccc(CNCCN5CCNCC5)c4)c3)nc2c1.O=C(O)C(F)(F)F [TCMDC-132871]	10.12 µM	95.8%	94.1%	90.3%	6.65	1520 nM	1.27	–	–	–	–	–	–	–	–	–	–	–	–	–	% inhibition male (individual replicates) R4 [1, 6]: 100.2%; Average inhibition female (%) [2, 3]: 25.3%; % inhibition female (individual replicates) R1 [2, 4]: 24.1%; % inhibition female (individual replicates) R3 [2, 5]: 40.5%; % inhibition female (individual replicates) R4 [2, 6]: 19.2%; IC50 [2]: 7940 nM
FC(F)(F)c1ccc2[nH]c(-c3cccc(-c4ccc(CNCCN5CCNCC5)cc4)c3)nc2c1.O=C(O)C(F)(F)F [TCMDC-132872]	14.49 µM	–	–	–	9.17	1580 nM	2.18	–	–	–	–	–	3	–	–	–	–	–	–	0	Average inhibition male (%) [1, 17]: 72.1%; % inhibition male (individual replicates) R1 [1, 18]: 71.0%; % inhibition male (individual replicates) R3 [1, 19]: 37.9%; % inhibition male (individual replicates) R4 [1, 20]: 97.6%; Average inhibition female (%) [2, 17]: 30.3%; % inhibition female (individual replicates) R1 [2, 18]: 24.6%; % inhibition female (individual replicates) R3 [2, 19]: 21.1%; % inhibition female (individual replicates) R4 [2, 20]: 42.9%; IC50 [2]: 6650 nM
COc1ccc(-c2cnc(N)c(-c3ccc(C(N)=O)cc3)c2)cc1OC [TCMDC-133349]	15.14 µM	–	–	–	54.05	–	1.51	71.3%	80.4%	82.4%	51.1%	280 nM	3	9.1%	0.18%	11.3%	7.9%	17.1%	> 10000 nM	0	–
CNC(=O)c1ccccc1Nc1nc(Nc2ccc(CCN3CCN(C)CC3)cc2)ncc1Cl.Cl [TCMDC-133800]	0.33 µM	96.7%	94.6%	98.6%	5.19	60 nM	0.03	–	–	–	–	–	–	–	–	–	–	–	–	–	% inhibition male (individual replicates) R4 [1, 6]: 96.9%; Average inhibition female (%) [2, 3]: 7.2%; % inhibition female (individual replicates) R1 [2, 4]: 6.8%; % inhibition female (individual replicates) R3 [2, 5]: -10.4%; % inhibition female (individual replicates) R4 [2, 6]: 12.4%
CNC(=O)c1ccccc1Nc1nc(Nc2cccc(CS(C)(=O)=O)c2)ncc1C.O=CO [TCMDC-133809]	1.03 µM	90.9%	93.6%	92.1%	6.79	150 nM	0.1	–	–	–	–	–	–	–	–	–	–	–	–	–	% inhibition male (individual replicates) R4 [1, 6]: 84.9%; Average inhibition female (%) [2, 3]: -2.2%; % inhibition female (individual replicates) R1 [2, 4]: -7.2%; % inhibition female (individual replicates) R3 [2, 5]: 6.2%; % inhibition female (individual replicates) R4 [2, 6]: -11.5%
